Laboratory results reported in ChEMBL document CHEMBL5046322, “Discovery of SHR2415, a Novel Pyrrole-Fused Urea Scaffold ERK1/2 Inhibitor” (ACS Med Chem Lett, 2022).

How the values were obtained:
[1] = target: Mitogen-activated protein kinase 1 (Homo sapiens, UniProt P28482); assay: Inhibition of ERK2 (unknown origin) measured after 2 hr by ADP-glo assay
COLO 205 [2] = assay: Antiproliferative activity against human COLO 205 cells assessed as reduction in cell viability for 72 hrs by cell titre glo luminescence assay; type: functional, cell-based
[3] = Cmax in ICR mouse plasma at 1 mg/kg, iv and measured after 24 hrs by LC/MS/MS analysis; type: ADME, organism-based; parameters: route intravenous, dose 1 mg/kg, time 24 hrs
[4] = Cmax in Sprague-Dawley rat plasma at 1 mg/kg, iv and measured after 24 hrs by LC/MS/MS analysis; type: ADME, organism-based; parameters: route intravenous, dose 1 mg/kg, time 24 hrs
[5] = AUC (0 to t) in ICR mouse at 2 mg/kg, po; type: ADME, organism-based; parameters: dose 2 mg/kg; settings: in vivo
[6] = AUC (0 to t) in Sprague-Dawley rat at 2 mg/kg, po; type: ADME, organism-based; parameters: dose 2 mg/kg; settings: in vivo
[7] = Half life in ICR mouse at 2 mg/kg, po; settings: in vivo
[8] = Half life in Sprague-Dawley rat at 2 mg/kg, po; settings: in vivo
[9] = Clearance in ICR mouse plasma at 1 mg/kg, iv and measured after 24 hrs by LC/MS/MS analysis mg/kg, iv; type: ADME, organism-based
[10] = Clearance in Sprague-Dawley rat plasma at 1 mg/kg, iv and measured after 24 hrs by LC/MS/MS analysis; type: ADME, organism-based
[11] = Oral bioavailability in ICR mouse at 2 mg/kg; type: ADME, organism-based; settings: in vivo
[12] = Oral bioavailability in Sprague-Dawley rat at 2 mg/kg; type: ADME, organism-based; settings: in vivo
[13] = Cmax in plasma of BALB/c mouse xenografted with human COLO 205 cells at 50 mg/kg, po for 14 days; type: ADME, organism-based; parameters: route oral, dose 50 mg/kg, time 14 day
[14] = AUC in plasma of BALB/c mouse xenografted with human COLO 205 cells at 50 mg/kg, po for 14 days; type: ADME, organism-based; parameters: time 14 day, dose 50 mg/kg
[15] = Cmax in tumor of BALB/c mouse xenografted with human COLO 205 cells at 50 mg/kg, po for 14 days; type: ADME, organism-based, Neoplasm; parameters: route oral, dose 50 mg/kg, time 14 day
[16] = AUC in tumor of BALB/c mouse xenografted with human COLO 205 cells at 50 mg/kg, po for 14 days; type: ADME, organism-based, Neoplasm; parameters: dose 50 mg/kg, time 14 day
[17] = Ratio of AUC in tumor to plasma of BALB/c mouse xenografted with human COLO 205 cells at 50 mg/kg, po for 14 days; type: ADME, organism-based; settings: tumor and plasma, time 14 day, read-out: Ratio AUC
COLO 205 [18] = assay: Antitumor activity against human COLO 205 cells xenografted in BALB/c nude mouse assessed as TGI at 50 mg/kg, po measured after 14 days; type: functional; settings: COLO 205, po, 336 h, time 14 day, read-out: TGI
[19] = Homo sapiens, COLO 205, 72 h, read-out: IC50

Mitogen-activated protein kinase 1, sequence (P28482 whole entry): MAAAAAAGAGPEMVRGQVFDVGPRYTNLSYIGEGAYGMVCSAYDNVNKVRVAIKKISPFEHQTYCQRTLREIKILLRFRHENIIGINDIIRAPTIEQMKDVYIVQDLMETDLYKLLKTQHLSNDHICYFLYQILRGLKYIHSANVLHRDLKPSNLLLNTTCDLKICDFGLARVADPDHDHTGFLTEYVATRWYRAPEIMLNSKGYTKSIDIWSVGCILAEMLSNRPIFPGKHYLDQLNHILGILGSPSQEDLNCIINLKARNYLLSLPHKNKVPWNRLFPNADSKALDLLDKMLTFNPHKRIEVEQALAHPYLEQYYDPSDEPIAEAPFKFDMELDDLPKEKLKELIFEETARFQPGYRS

| IC50 [1] | IC50 (COLO 205 [2]; [19]) | IC50 (COLO 205 [2]; colo 205) | Structure (SMILES) | also measured |
| --- | --- | --- | --- | --- |
| 4.8 nM | 92.2 nM | – | Cc1cnc(Nc2ccnn2C)nc1-c1cc2n(c1)C(=O)N([C@H](CO)c1ccc(Cl)c(F)c1)C2 | – |
| 18.3 nM | – | Not Active | Cc1cnc(Nc2ccnn2C)nc1-c1cc2n(c1)C(=O)N([C@H](CN)c1cccc(Cl)c1)C2 | – |
| – | 77.1 nM | – | Cc1cnc(Nc2ccnn2C)nc1-c1cc2n(c1)C(=O)N([C@H](CO)c1cccc(Cl)c1)CC2 | Cmax [3]: 275 ng/mL; Cmax [4]: 84.3 ng/mL; AUC(0-t) [5]: 277 ng·h/mL; AUC(0-t) [6]: 258 ng·h/mL; half-life [7]: 0.82 h; half-life [8]: 1.6 h; clearance [9]: 63.1 mL/min/kg; clearance [10]: 38.5 mL/min/kg; bioavailability [11]: 54%; bioavailability [12]: 29.4% |
| – | – | Not Active | Cc1cnc(Nc2ccnn2C)nc1-c1cc2n(c1)C(=O)N([C@H](C)c1cccc(Cl)c1)C2 | – |
| 1.5 nM | 94.5 nM | – | CNC[C@H](c1cccc(Cl)c1)N1Cc2cc(-c3nc(Nc4ccnn4C)ncc3C)cn2C1=O | – |

More lines, now with the values behind:

| Structure (SMILES) | IC50 [1] | IC50 (COLO 205 [2]; [19]) | IC50 (COLO 205 [2]; colo 205) | also measured |
| --- | --- | --- | --- | --- |
| Cc1cnc(NC(C)C)nc1-c1cc2n(c1)C(=O)N([C@H](CO)c1cccc(Cl)c1)C2 | 188 nM | – | Not Active | – |
| Cn1nccc1Nc1nccc(-c2cn3c(n2)CN([C@H](CO)c2cccc(Cl)c2)C3=O)n1 | 4200 nM | – | Not Active | – |
| Cc1cnc(Nc2ccnn2C)nc1-c1cn2c(c1F)CN([C@H](CO)c1cccc(Cl)c1)C2=O | 130 nM | – | Not Active | – |
| Cn1nccc1Nc1nccc(N2CCN(C(CO)c3cccc(Cl)c3)C(=O)C2)n1 (racemic) | 240 nM | > 10000 nM | – | – |
| Cc1cnc(Nc2ccnn2C)nc1N1Cc2cn(C(CO)c3cccc(Cl)c3)nc2C1 (racemic) | 14.4 nM | 248 nM | – | – |
| Cc1cnc(Nc2ccnn2C)nc1N1Cc2nn(C(CO)c3cccc(Cl)c3)c(C)c2C1 (racemic) | 99 nM | 964 nM | – | – |
| CC(C)Nc1cc(-c2c[nH]c(C(=O)N[C@H](CO)c3cccc(Cl)c3)c2)c(Cl)cn1 [ULIXERTINIB] | – | 103 nM | – | Cmax [13]: 32300 ng/mL; AUC at 336 h [14]: 114000 ng·h/mL; Cmax [15]: 13000 ng/mL; AUC at 336 h [16]: 48800 ng·h/mL; Kp at 336 h [17]: 0.43; inhibition in vivo at 50 mg/kg (COLO 205 [18]): 63% |
